Test results as given in ChEMBL document CHEMBL1201862, “PubChem BioAssay data set” (2004).
The source made the active and inactive calls.

Columns and labels:
[1] = molecular target: Alkaline phosphatase, placental type (Homo sapiens, UniProt P05187); experiment: PLAP enzyme inhibitors, confirmation, biochemical, luminescence (AID 1512); type: functional
[2] = molecular target: T1, Mannose-6-phosphate isomerase (Homo sapiens, UniProt P34949); experiment: PMI enzyme inhibitors, confirmation, biochemical, fluorescence intensity (AID 1535)
T1 sequence (P34949 whole entry): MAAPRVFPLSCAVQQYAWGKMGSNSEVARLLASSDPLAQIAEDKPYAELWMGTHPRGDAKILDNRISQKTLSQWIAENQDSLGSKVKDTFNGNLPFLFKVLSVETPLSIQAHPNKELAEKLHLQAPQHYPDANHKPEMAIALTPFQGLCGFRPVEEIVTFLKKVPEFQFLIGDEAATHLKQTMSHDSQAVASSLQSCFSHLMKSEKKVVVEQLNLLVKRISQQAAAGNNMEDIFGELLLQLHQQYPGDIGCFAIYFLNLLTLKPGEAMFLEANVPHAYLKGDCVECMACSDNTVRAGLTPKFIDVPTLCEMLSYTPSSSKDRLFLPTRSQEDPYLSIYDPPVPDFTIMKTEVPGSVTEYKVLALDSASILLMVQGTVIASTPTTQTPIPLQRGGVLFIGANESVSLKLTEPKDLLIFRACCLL

[3] = molecular target: T1, Mannose-6-phosphate isomerase; experiment: Confirmation of compounds inhibiting phosphomannose isomerase (PMI) via a fluorescence intensity assay using a high concentration of mannose 6-phosphate. [Related pubchem assays (depositor defined):AID1209, AID1220, AID1545, AID1553, AID1620]
[4] = microbe, parasite or virus in culture; type: functional; details: Mycobacterium tuberculosis
[5] = molecular target: Beta-galactosidase (Escherichia coli, UniProt Q8VNN2); type: functional
[6] = cells; type: functional
[7] = THP-1 cell cytotoxicity, dose response, cytotoxicity control for non-replicating M. tuberculosis project (AID 489025); type: functional
[8] = molecular target: T2, Kappa-type opioid receptor (Homo sapiens, UniProt P41145); type: functional
[9] = molecular target: T2, Kappa-type opioid receptor; type: functional; remark: listed apart in the source
[10] = molecular target: Caspase-7 (Homo sapiens, UniProt P55210); experiment: procaspase-7 activators, dose response, counter-screen for procaspase-3 activator project, biochemical, absorbance (AID 489013)
[11] = molecular target: T3, Caspase-3 (Homo sapiens, UniProt P42574); experiment: procaspase-3 activators, dose response, biochemical, absorbance (AID 489014)
T3 sequence (P42574 whole entry): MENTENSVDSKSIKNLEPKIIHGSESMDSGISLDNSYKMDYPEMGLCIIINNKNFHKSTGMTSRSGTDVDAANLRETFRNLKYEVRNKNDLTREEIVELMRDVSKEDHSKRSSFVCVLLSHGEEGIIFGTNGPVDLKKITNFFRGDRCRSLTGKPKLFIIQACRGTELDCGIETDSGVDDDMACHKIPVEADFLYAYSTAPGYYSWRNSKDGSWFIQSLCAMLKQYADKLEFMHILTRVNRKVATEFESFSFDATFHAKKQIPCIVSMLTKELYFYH

[12] = Luminescence Cell-Based Dose Retest to Confirm Inhibitors of Cancer Stem Cells. [Related pubchem assays (depositor defined):AID2717, AID2721]; type: functional, Homo sapiens; details: Homo sapiens
[13] = inhibitors of intracellular T. cruzi replication, confirmation, NIH3T3 host cells, beta-gal luminescence (AID 2044); type: functional, cell-based;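 further: intracellular parasites grown in NIH/3T3 mouse fibroblasts as host cells; luminescent beta-galactosidase reporter signal from transgenic T. cruzi replicating inside host cells; inhibitors lower the luminescence signal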
[14] = system: Vero; experiment: cells; type: functional, cell-based; details: Chlorocebus sabaeus
[15] = molecular target: G-protein coupled receptor 55 (Homo sapiens, UniProt Q9Y2T6); experiment: GPR55 agonists via beta-arrestin recruitment, primary screen, imaging, U2OS cells, beta-arrestin-GFP redistribution (AID 1961); type: functional
[16] = cytotoxicity toward NIH3T3 fibroblasts, dose response, counter-screen, cell-based, ATP luminescence, mouse fibroblasts (AID 2010); type: functional;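 further: cells exposed to compound for about 90 hours before reading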
[17] = system: Vero; experiment: cells; type: functional; details: Chlorocebus sabaeus
[18] = molecular target: Phosphoethanolamine/phosphocholine phosphatase (Homo sapiens, UniProt Q8TCT1); experiment: SAR assay for compounds that inhibit PHOSPHO1. [Related pubchem assays (depositor defined):AID1545, AID1565, AID1574]
[19] = molecular target: Phosphomannomutase 2 (Homo sapiens, UniProt O15305); experiment: Counter screen SAR assay for PMM2 inhibitors via a fluorescence intensity assay. [Related pubchem assays (depositor defined):AID1545, AID1574]
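Wherever AC50 is given: cells exposed to compound for roughly 70 hours or longer before luminescence read.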

T2 sequence (P41145 whole entry): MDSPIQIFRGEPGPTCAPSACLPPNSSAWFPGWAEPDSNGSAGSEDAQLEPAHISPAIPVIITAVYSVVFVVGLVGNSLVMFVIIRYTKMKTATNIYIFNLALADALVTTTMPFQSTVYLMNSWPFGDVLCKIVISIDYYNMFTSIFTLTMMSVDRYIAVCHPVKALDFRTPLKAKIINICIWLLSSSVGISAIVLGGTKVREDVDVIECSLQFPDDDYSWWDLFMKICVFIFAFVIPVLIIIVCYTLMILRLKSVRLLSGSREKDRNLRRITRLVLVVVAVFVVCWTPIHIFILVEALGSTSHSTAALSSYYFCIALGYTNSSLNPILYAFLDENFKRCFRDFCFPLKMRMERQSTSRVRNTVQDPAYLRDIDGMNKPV
Chain of Phosphoethanolamine/phosphocholine phosphatase (Q8TCT1 whole entry): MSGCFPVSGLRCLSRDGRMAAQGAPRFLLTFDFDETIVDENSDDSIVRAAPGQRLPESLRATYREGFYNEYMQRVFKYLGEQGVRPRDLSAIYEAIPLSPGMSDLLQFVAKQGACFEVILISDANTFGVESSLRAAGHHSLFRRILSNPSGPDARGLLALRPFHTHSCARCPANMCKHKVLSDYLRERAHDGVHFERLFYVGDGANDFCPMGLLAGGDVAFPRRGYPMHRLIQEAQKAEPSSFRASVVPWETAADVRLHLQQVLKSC
Chain of Beta-galactosidase (Q8VNN2 whole entry): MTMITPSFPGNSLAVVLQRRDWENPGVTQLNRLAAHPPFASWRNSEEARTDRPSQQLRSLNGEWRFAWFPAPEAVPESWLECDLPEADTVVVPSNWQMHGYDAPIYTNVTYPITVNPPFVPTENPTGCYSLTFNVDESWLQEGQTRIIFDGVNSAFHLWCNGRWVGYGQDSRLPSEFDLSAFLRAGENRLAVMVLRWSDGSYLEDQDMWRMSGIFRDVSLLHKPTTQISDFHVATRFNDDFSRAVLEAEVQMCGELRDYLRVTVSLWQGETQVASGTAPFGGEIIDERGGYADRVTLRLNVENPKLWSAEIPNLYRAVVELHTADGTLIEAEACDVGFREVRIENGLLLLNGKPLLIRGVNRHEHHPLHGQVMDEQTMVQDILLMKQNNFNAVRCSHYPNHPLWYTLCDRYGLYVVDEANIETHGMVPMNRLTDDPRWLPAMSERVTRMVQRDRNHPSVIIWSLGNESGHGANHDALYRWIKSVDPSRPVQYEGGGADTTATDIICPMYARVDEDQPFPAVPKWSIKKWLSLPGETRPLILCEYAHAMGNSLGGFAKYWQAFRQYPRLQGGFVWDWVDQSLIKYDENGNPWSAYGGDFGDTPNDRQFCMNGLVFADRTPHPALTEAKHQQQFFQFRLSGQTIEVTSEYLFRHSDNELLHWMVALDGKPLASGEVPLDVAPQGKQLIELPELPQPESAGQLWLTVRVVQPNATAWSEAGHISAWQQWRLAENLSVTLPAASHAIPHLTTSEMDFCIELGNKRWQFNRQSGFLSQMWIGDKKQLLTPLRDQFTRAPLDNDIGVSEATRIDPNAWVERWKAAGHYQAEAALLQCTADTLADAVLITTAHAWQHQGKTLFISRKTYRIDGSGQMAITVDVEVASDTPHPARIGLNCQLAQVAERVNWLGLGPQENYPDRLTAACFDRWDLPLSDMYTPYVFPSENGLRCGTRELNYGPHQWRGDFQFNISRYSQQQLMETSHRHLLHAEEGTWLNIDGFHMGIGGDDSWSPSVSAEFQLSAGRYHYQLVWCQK
Chain of G-protein coupled receptor 55 (Q9Y2T6 whole entry): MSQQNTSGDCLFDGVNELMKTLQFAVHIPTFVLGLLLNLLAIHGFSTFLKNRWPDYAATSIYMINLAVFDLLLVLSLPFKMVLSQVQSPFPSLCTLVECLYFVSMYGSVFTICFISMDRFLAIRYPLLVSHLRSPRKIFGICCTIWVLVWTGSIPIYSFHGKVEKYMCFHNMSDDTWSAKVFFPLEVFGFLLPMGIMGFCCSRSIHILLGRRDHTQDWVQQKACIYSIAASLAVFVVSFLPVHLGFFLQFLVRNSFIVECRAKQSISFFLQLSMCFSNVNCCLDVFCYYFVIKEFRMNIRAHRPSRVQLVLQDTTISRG
Chain of Phosphomannomutase 2 (O15305 whole entry): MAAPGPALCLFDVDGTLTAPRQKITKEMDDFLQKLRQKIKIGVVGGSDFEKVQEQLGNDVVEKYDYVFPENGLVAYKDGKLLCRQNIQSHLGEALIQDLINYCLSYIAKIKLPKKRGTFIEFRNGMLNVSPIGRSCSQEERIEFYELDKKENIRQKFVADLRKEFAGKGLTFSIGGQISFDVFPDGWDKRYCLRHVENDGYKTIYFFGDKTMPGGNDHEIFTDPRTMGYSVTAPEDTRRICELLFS
Chain of Caspase-7 (P55210 24-198 limits assumed): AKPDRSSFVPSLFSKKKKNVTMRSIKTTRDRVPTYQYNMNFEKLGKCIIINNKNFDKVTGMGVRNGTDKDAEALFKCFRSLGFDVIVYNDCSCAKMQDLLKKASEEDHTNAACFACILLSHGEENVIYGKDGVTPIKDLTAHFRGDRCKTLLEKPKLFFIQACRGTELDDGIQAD
Chain of Caspase-7 (P55210 207-303 limits assumed): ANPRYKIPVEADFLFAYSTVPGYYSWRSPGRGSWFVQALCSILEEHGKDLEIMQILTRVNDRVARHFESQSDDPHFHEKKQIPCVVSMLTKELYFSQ
Chain of Alkaline phosphatase, placental type (P05187 whole entry): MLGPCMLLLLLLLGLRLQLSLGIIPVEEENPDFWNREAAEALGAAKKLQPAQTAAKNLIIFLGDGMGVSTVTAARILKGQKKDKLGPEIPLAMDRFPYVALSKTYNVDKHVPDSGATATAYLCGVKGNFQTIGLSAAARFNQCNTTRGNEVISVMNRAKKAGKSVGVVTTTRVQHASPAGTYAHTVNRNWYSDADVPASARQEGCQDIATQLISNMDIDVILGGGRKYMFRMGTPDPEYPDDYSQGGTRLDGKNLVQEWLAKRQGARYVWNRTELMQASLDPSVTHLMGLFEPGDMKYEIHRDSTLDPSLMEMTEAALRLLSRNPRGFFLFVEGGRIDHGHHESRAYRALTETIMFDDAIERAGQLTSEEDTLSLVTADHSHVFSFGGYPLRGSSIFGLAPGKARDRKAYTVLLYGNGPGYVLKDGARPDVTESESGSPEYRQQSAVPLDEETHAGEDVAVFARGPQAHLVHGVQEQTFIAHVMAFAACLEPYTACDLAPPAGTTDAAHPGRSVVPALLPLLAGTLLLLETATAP

With `C=CCN1C(=O)/C(=N\Nc2ccccc2O)c2ccccc21` the IC50 [1] was > 100 µM (inactive), the IC50 [2] was > 100 µM (inactive) and the IC50 [3] was > 100 µM (inactive).
In the case of `CC(C)(C)NC(=O)C(=O)NNC(=O)c1ccc(C(C)(C)C)cc1`, the CC50 [4] is reported as > 40 µM (active), the EC50 [5] is reported as > 31.5 µM (inactive) and the IC50 [6] is reported as 19.4 µM (active). The CC50 [7] was > 40 µM (active), the IC50 [8] was > 31.5 µM (inactive) and the IC50 [9] was > 32 µM.
For `COc1ccc(-c2sc3ccc(OC)cc3c2C#Cc2ccccn2)cc1`, the EC50 [10] was > 85.2 µM (inactive), the EC50 [11] was > 85.2 µM (inactive) and the AC50 [12] was 3 µM (active).
In the case of `Cc1ccc(C(=O)C(C(=O)/C=C/c2ccccc2)=C2SCCCS2)cc1`, the EC50 [13] is reported as 0.99 µM (active), the IC50 [14] is reported as 7.69 µM (active) and the EC50 [15] is reported as 3.63 µM (active). The EC50 [16] was 10.3 µM (active), the AC50 [12] was 1.24 µM (active) and the CC50 [17] was > 25 µM (active).
With `O=c1c2ccc(F)cc2sn1-c1cccc(Cl)c1Cl` the IC50 [2] was > 50 µM (inactive), the IC50 [18] was 0.359 µM (active) and the IC50 [19] was > 100 µM (inactive).
